{"source": "patent US12551438B2", "about": "“Nanobowl-supported drug-loaded liposome, preparation method therefor and application thereof” (priority 2020, dated 2026)", "key": {"4T1 breast cancer cells": {"system": "4T1 breast cancer cells", "assay": "Cell viability by CCK-8 method", "type": "cell-based, mouse", "conditions": "4T1 cells, doxorubicin 0.01-10.00 μg/mL, 48 h", "experimental": "[formula] • 5) collecting the nanobowls@Dox-liposomes at each time point by centrifugation (24000 g, 15 min) and determining the particle size and potential by DLS after redispersion. 1.2. […] Incubating the culture plate in a 37° C., 5% CO2 constant temperature cell incubator for 12 h; 2) preparing different nanoparticle structures in a serum-free culture medium with a drug concentration gradient to prepare a culture medium containing different concentrations of liquid medicine, sucking out the old culture medium in the culture plate, and then adding 200 μL of a new culture medium containing the liquid medicine to each well; • 3) placing the 96-well plate containing cells in a 37° C., 5% CO2 constant temperature cell incubator for culture for appropriate time; • 4) diluting CCK-8 liquid with serum-free culture medium by a factor of 10 according to 1:10, sucking out the old culture medium in the culture plate, and adding 100 μL culture medium containing CCK-8 into each well; • 5) incubating the culture plate in a 37° C., 5% CO2 constant temperature cell incubator for 0.5-1 h; • 6) determining the absorbance of each well with a microplate reader at a wavelength of 450 nm. […]"}, "4T1 breast cancer": {"system": "4T1 breast cancer", "experimental": "• 1) 4T1 cell culture solution: DMEM basal medium, 1 penicillin streptomycin double antibody, 10% fetal bovine serum; • 2) 4% paraformaldehyde solution: with PBS (0.01 M) of pH 7.4 as the solvent, weighing 40 g of paraformaldehyde and placing into 800 mL of PBS solution, shaking and dissolving in a constant temperature shaker at 60° C. overnight; after the solid of paraformaldehyde is completely dissolved, stopping heating, balancing to room temperature, and adding PBS again to dilute the volume to 1 L; • 3) 1% sodium pentobarbital anesthetic: weighing 100 mg pentobarbital sodium, adding into 10 mL ultrapure water, and vortexing until it is fully dissolved. II. Experimental Method 1. Establishment of Orthotopic Inoculation Model for 4T1 Breast Cancer 1.1 Preparation of 4T1 Cell Suspension • 1) Taking a T-75 culture flask containing 4T1 cells, using a pipette to suck out the cell culture solution in the culture flask, and adding 5 mL of DPBS to rinse for 1-2 times to remove the residual culture solution; • 2) adding 2 mL of 0.25% trypsin, shaking the culture flask back and forth, so that the trypsin uniformly covers the bottom surface of the culture flask, and incubating in a constant temperature incubator containing 5% CO2 at 37° C. for 3 min; • 3) adding 10 mL serum-free cell culture medium, diluting trypsin and stop digestion; • 4) using a pipette to blow and beat the cell suspension to evenly disperse it to obtain a single cell suspension, taking 5 μL of cell suspension and adding placental blue dye solution with the same volume, and using an Invitrogen life countess cell counter to count the cells of cell suspension; • 5) centrifuging at 4° C. and 800 g for 5 min, discarding the supernatant, adding an appropriate amount of serum-free cell culture medium according to the intracellular concentration calculated previously, gently blowing and beating the cell block with a pipette to fully disperse it to prepare a single cell suspension, and the final concentration of cell suspension is: 1.6×10^7/mL; • 6) dispensing the 4T1 cell suspension into sterile 2 mL centrifuge tubes and storing at 4° C. until use. 1.2 BALB/c Female Mice Inoculated Orthotopically with 4T1 Cells • 1) On the day before inoculation, removing the hair on the right side of the abdomen of the mice to prepare the skin for the next day surgery; • 2) the next day, injecting the skin-prepared mice intraperitoneally with 1% pentobarbital anesthetic 100 μL; • 3)after complete anesthesia, fixing the limbs, wetting the right side of the abdomen with normal saline, and then using a scalpel to make a light incision on the abdomen; • 4) using tweezers to clamp out the 4th mammary fat pad located at the root of right thigh, and injecting 50 μL of 4T1 single cell suspension prepared above; • 5) loosening the tweezers, positioning the fat pad, and then suturing the abdominal wound; • 6) at the end of inoculation, returning the mice to their cages and the front leg of each mouse was taped with a label tape. 2. Animal Grouping and Dosing Regimen • 1) four days after inoculation, tumor volume was determined using vernier calipers: the longest and shortest diameters (L, W) of the tumor were measured every other day, and the tumor volume was calculated according to the following formula:\n[formula] • 2) after the tumor volume grew to 80 mm^3, it was evenly divided into the following 5 experimental groups according to the size of tumor volume: • (1) Saline group (Saline) • (2) Blank nanobowls@liposomes group (NB@LP) • (3) Doxorubicin hydrochloride group (Dox) • (4) Common Dox-liposome group (DLP) • (5) Nanobowls@Dox-liposome group (NB@DLP) • 3) On the 8th, 11th and 14th day after inoculation, the corresponding drugs were intravenously injected into the tail vein of each experimental group, and the corresponding drugs were administered to each group at a dose of 4 mg/kg of doxorubicin. 3."}, "4T1 tumor tissue": {"system": "4T1 tumor tissue", "assay": "TUNEL and PCNA immunohistochemical staining of tumor tissue of 4T1 tumor-bearing mice", "type": "in vivo, mouse", "conditions": "tumor tissue after treatment", "text": "(§1) [formula] • 2) after the tumor volume grew to 80 mm^3, it was evenly divided into the following 5 experimental groups according to the size of tumor volume: • (1) Saline group (Saline) • (2) Blank nanobowls@liposomes group (NB@LP) • (3) Doxorubicin hydrochloride group (Dox) • (4) Common Dox-liposome group (DLP) • (5) Nanobowls@Dox-liposome group (NB@DLP) • 3) On the 8th, 11th and 14th day after inoculation, the corresponding drugs were intravenously injected into the tail vein of each experimental group, and the corresponding drugs were administered to each group at a dose of 4 mg/kg of doxorubicin. 3. Monitoring of Mouse Body Weight and Tumor Volume • 1) determining body weight and tumor length and diameter every 2 days after the first dose of group, calculating tumor volume, and recording and summarizing all results; • 2) using GraphPad Prism 7.0 medical mapping software for data induction, statistical analysis, and making charts. 4. Immunohistochemical Staining of Tissue Sections • 1) after the last intravenous administration, selecting several mice in each experimental group, after sacrifice, dissecting and removing tumor tissues and important organs of mice, and fully immersing in 4% paraformaldehyde solution for fixation; • 2) during fixation, replacing fresh 4% paraformaldehyde solution several times to wash out residual blood. […]"}, "[1]": {"system": "important organs of tumor-bearing mice", "conditions": "mouse, in vivo", "text": "as §1"}}, "note": "Structures can show the parent of a compound that is named as a salt."}
{"smiles": "COc1cccc2c1C(=O)c1c(O)c3c(c(O)c1C2=O)C[C@@](O)(C(=O)CO)C[C@@H]3O[C@H]1C[C@H](N)[C@H](O)[C@H](C)O1", "note": "[Dox, doxorubicin hydrochloride]", "values": [{"measurement": "effect on cell viability", "setting": "4T1 breast cancer cells", "value": "significantly stronger than that of common Dox-liposomes and nanobowls@Dox-liposomes"}, {"measurement": "tumor volume growth", "setting": "4T1 breast cancer; 4 mg/kg doxorubicin i.v. tail vein, days 0, 3 and 6", "value": "could not achieve the expected treatment of tumor"}, {"measurement": "median survival time", "setting": "4T1 breast cancer; 4T1 breast cancer mice", "value": 27, "unit": "days"}, {"measurement": "Median survival", "setting": "4T1 breast cancer; 4T1 breast cancer mice, 4 mg/kg doxorubicin i.v. x3", "value": 27, "unit": "days"}, {"measurement": "Prolong duration", "setting": "4T1 breast cancer; median survival versus saline", "value": 3, "unit": "days"}, {"measurement": "Prolonged rate (%)", "setting": "4T1 breast cancer; median survival versus saline control", "value": 12.50, "unit": "%"}, {"measurement": "body weight of mice during administration", "setting": "4T1 breast cancer; mouse, in vivo", "value": "significant decrease"}, {"measurement": "prolongation of median survival time compared with the control group", "setting": "4T1 breast cancer; versus saline control", "value": 3, "unit": "days"}, {"measurement": "effect of promoting tumor cell apoptosis (TUNEL) and inhibiting proliferation (PCNA)", "setting": "4T1 tumor tissue", "value": "worst effect"}, {"measurement": "toxicity to the heart (pathological sections)", "setting": "[1]", "value": "more toxic to the heart, leading to the lysis and rupture of cardiomyocytes"}]}
